# Measured values from US8969081B2, “Caudal motor neuron derived from embryonic stem cells under conditions essentially free of any retinoid” (The Trustees of Columbia University in the City of New York, priority 2008, dated 2015).
# Entries after “also recorded” stand apart in the source; their conditions may differ.
# Experiments:
# [1] = tested on: embryoid bodies from ES cells; experiment: Dorso-ventral progenitor marker expression in embryoid bodies; assay type: cell-based, mouse; details: 1 μM HhAg1.3, absence of RA
# Procedure: (§1) Immunocytochemistry on ES cell-derived MNs and EBs was performed as previously described (Wichterle et al., 2002). Antibodies against the following proteins were used in the analysis during this study: Otx2, Hoxa5, Hoxc8, Hoxc6, Hoxc9, Hoxd9, Hoxd10, Foxp1, Lhx3, Pea3, Scip, NeuN, dsRed, NF.
# To determine whether motor neuron progenitors are correctly specified at 1 μM concentrations of HhAg1.3 expression pattern of a series of DV progenitor markers were examined.
# The endogenous Shh signaling centers have been identified as clusters of Foxa2+ cells expressing Shh (FIG. 2D).
# Immunocytochemistry on dissociated ES-MNs and cryosectioned EBs was performed as previously described (Wichterle et al., 2002). In this study, the following antibodies were used: goat anti-Meis1 (Santa Cruz Biotechnology, SCB), mouse anti-Lhx3 (Developmental Studies Hybridoma Bank, DSHB), mouse anti-Lhx1/2 (DSHB), mouse anti-Nkx2.2 (DSHB), goat anti-Hoxc6 (SCB), rabbit anti-Hoxd9 (SCB), rabbit anti-Otx2 (kindly provided by G. Corte), mouse anti-Isl1 (DSHB), mouse anti-Hoxc 8 (DSHB), mouse anti-NeuN (Chemicon), rabbit anti-dsRed (Clontech), rabbit anti-Brachyury (SCB), mouse anti-Sonic Hedgehog (DSHB), mouse anti-FoxA2 (DSHB), mouse anti-Pax7 (DSHB), mouse anti-Hb9 (DSHB), guinea pig anti-Hb9 (kindly provided by the Project ALS laboratory). […]
# Hb9-GFP ES cells [2] = experiment: Efficiency of motor neuron specification (Hb9-GFP+ cells); assay type: cell-based, mouse
# Hb9-GFP ES cells [3] = details: MNs generated in the presence of RA (Wichterle et al., 2002); cited from earlier work
# [4] = tested on: differentiating ES cells / ES-MNs; experiment: Rostro-caudal patterning of differentiating ES cells (Hox / positional marker immunostaining); assay type: cell-based, mouse
# Procedure: Differentiation of cervical level motor neurons from mouse ES cells was performed as previously described (Wichterle et al., 2002). For differentiation of caudal brachial level MNs from ES cells, ES cells were grown in ES cell medium for two days, dissociated and plated into non-adherent tissue culture dishes using ADFNK medium at a density of 20,000 cells/ml. Medium is changed each day but not on Day 3 and Day 4 of differentiation (three and four days after dissociation of ES cells and plating into differentiation medium, respectively). Addition of any factors to differentiating embryonic bodies (EBs) was performed on Day 3. These included: 1 μg/ml Dickopf-1 Dkk1 (R&D Systems), FGF Receptor Inhibitor (PD173074, 100 nM final concentration), FGFb (Recombinant Human, FTF-basic, 120-17, PeproTech), rhGdf11 (R&D Systems, Cat#1958-GD). GDNF (10 ng/ml, R&D Systems) was supplemented on Day 5 of differentiation in selected cultures.
# (§2) For immunocytochemical analysis, embryonic bodies (EBs) were dissociated using 0.05% Trypsin-EDTA on Day 6 and plated at low densities on laminin coated coverslips using ADFNB medium supplemented with 10 ng/ml Glial cell-derived neurotrophic factor (GDNF). For quantification of MN subtypes, EBs were collected on Day 6 and dissociated using 0.05 Trypsin-EDTA. Dissociated cells were plated on laminin coated coverslips using ADFNB medium (DMEM/F12, Neurobasal, 1 ml B27 50× supplement and optional 5 ng/ml of GDNF to enhance survival of MN cultures) and fixed with 4% PFA one day later.
# as §1
# (§3) For each experiment, 10 distinct randomized image fields were taken using a confocal microscope LSM Zeiss Meta 510. Expression of all markers used for quantifications was gated to GFP positive cells, ES cell-derived spinal MNs. Images were analyzed for the expression of the above stated markers in the context of the ES cell-derived caudal brachial MNs. Each quantification is the result of at least three independent experiments (three independent differentiation experiments).
# All experiments were performed with HBG3 ES cell line harboring Hb9-GFP transgene (Wichterle et al., 2002) and key experiments were confirmed using a control MM13 ES cell line. Differentiation of HBG3 ES cell line under RA/Hh conditions into rostral cervical MNs was performed as previously described (Wichterle et al., 2002; Wichterle and Peljto, 2008). For production of cervical MNs, ES cells were plated at 50,000 cells/ml in ADFNK differentiation medium [Advanced D-MEM/F-12 (Invitrogen): Neurobasal medium (Invitrogen) (1:1), 10% Knockout Serum Replacement (Invitrogen), […] L-Glutamine (Invitrogen), 0.1 mM β-mercaptoethanol (Sigma), and Pen/Strep (Invitrogen)]. Medium was completely changed on days 1, 2 and of differentiation. EBs were split 1:4 on day 2 of differentiation and the medium was supplemented with 1 μM all-trans retinoic acid (RA, Sigma) and Hh agonist (0.5 μM SAG, Calbiochem or 1 μM HhAg1.3, (Frank-Kamenetsky et al., 2002)). To generate caudal brachial level MNs from ES cells under FGF/Hh conditions, ES cells were plated into non-adherent tissue culture dishes in ADFNK medium (˜20,000 cells/ml). Embryoid bodies (EBs) were split 1:4 on day 2 of differentiation and the medium was changed on days 1, 2 and 5. Selected cultures were supplemented with the following reagents: 10 nM-1 μM RA, 10 nM-1 μM Hh Agonist, 1 μg/ml recombinant mouse Dickkopf-1 (R&D Systems), 50-100 nM FGF/VEGF Receptor Tyrosine Kinase Inhibitor (PD173074, Calbiochem) (Mohammadi et al., 1998), 100-625 ng/ml recombinant human bFGF (PeproTech), 20 ng/ml recombinant human Gdf11/Bmp11 (R&D Systems), 10 ng/ml recombinant rat GDNF (R&D Systems). […]
# ES-MNs = experiment: Columnar and divisional identity of ES-MNs (FoxP1, Lhx3, Lhx1 immunostaining); assay type: cell-based, mouse
# Procedure: as §2, §1
# as §3, with “experiments). […]” for “experiments).”
Structure (SMILES),Expression of Nkx2.2 and Foxa2 (Hnf3β) [1],"Expression of Pax7, Pax6 and Olig2 [1]","Percentage of Hb9-GFP+ cells with increasing Hh agonist (Hb9-GFP ES cells [2]; 10 nM, 50 nM, 100 nM, 1 μM on day 2, EBs dissociated day 7)","Motor neuron generation at high HhAg1.3 concentrations (Hb9-GFP ES cells [2]; ADFNK medium, >500 nM)","GFP positive MNs, % of all cells (Hb9-GFP ES cells [2]; ADFNK medium, absence or low concentrations of HhAg1.3 (<100 nM) added Day 2, Day 6)",HhAg1.3 concentration that efficiently induces cervical MNs (Hb9-GFP ES cells [3]) [µM],"Hoxc8 expression in ES-MNs, loss after RA ([4]; 10 nM RA on day 3 of differentiation, two independent experiments) [%]","Rostro-caudal positional marker expression / segmental identity ([4]; Example 1, EBs supplemented on Day 3, markers examined two to four days later)","Rostro-caudal identity of MNs after RA ([4]; Example 2, 10 nM-1 μM on day 3, stained day 7)",Rostro-caudal identity (Hoxc8+ ES-MNs) after late RA ([4]; RA on day 4 or 5 of differentiation),"FoxP1+ ES-MNs expressing Lhx1 (ES-MNs; RA (1 μM) on day 5 of differentiation, analysed day 7) [%]","Lhx1+ BrdU- ES-MNs (ES-MNs; RA on day 5, BrdU from day 5 onwards, dissociated day 6) [%]"
CNC1CCC(N(Cc2cccc(-c3ccncc3)c2)C(=O)c2sc3ccccc3c2Cl)CC1 (stereo not drawn) [HhAg1.3],most cells within embryoid bodies expressed the ventral-most markers,not detected,does not significantly change the percentage of Hb9-GFP^+ cells,failure to generate motor neurons,8-10%,0.5 to 2,–,–,–,–,–,–
"CC1=C(/C=C/C(C)=C/C=C/C(C)=C/C(=O)O)C(C)(C)CCC1 [RA, all-trans retinoic acid, reference compound]",–,–,–,–,–,–,~10,induced rostral cervical identity characterized by Hoxa5 expression,specification of Hoxa5^+ rostral cervical MNs; also recorded: generation of Hoxa5^+ cervical MNs lacking expression of more posterior Hox genes,did not change the rostro-caudal positional identity; also recorded: does not result in significant changes in the numbers of Hoxc8^+ ES-MNs,15,~10
